Data taken from the supplement of paper PMC10627819.

How the values were obtained:
Assay in all cases: Bliss interaction score (quartile over a dose matrix) (fitness difference); higher = more antagonism (negative = synergy)
B. subtilis 168 = tested on: B. subtilis 168
How it was run: (§1)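 The Bliss score is observed fitness minus expected fitness, where the expected value is the product of single-drug fitness values inferred from combination data. Fitness is OD595 at entry into stationary phase normalised to the plate's robust no-drug mean and capped at 1. Scores are reported as quartiles spanning technical, biological and donor/recipient replicates.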

S. aureus DSM 20231 = tested on: S. aureus DSM 20231
How it was run: as §1

S. aureus Newman = tested on: S. aureus Newman
How it was run: as §1

S. pneumoniae D39V = tested on: S. pneumoniae D39V
How it was run: as §1
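Note: first quartile when negative (synergy) and third quartile when positive (antagonism).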

| Compound | Bliss interaction score (B. subtilis 168) | Bliss interaction score (S. aureus DSM 20231) | Bliss interaction score (S. aureus Newman) | Bliss interaction score (S. pneumoniae D39V) | Bliss interaction score (B. subtilis 168; main component drawn) | Bliss interaction score (S. aureus DSM 20231; main component drawn) | Bliss interaction score (S. aureus Newman; main component drawn) | Bliss interaction score (S. pneumoniae D39V; main component drawn) |
| --- | --- | --- | --- | --- | --- | --- | --- | --- |
| O=C(N[C@H](CO)[C@H](O)c1ccc([N+](=O)[O-])cc1)C(Cl)Cl [Chloramphenicol] + CC[C@H]1OC(=O)[C@H](C)[C@@H](O[C@H]2C[C@@](C)(OC)[C@@H](O)[C@H](C)O2)[C@H](C)[C@@H](O[C@@H]2O[C@H](C)C[C@H](N(C)C)[C@H]2O)[C@](C)(OC)C[C@@H](C)C(=O)[C@H](C)[C@@H](O)[C@]1(C)O [Clarithromycin] | -0.0459 | -0.158 | -0.129 | 0.0359 |  |  |  |  |
| O=C(N[C@H](CO)[C@H](O)c1ccc([N+](=O)[O-])cc1)C(Cl)Cl [Chloramphenicol] + CN(C)[C@@H]1C(O)=C(C(N)=O)C(=O)[C@@]2(O)C(O)=C3C(=O)c4c(O)ccc(Cl)c4[C@@](C)(O)[C@H]3C[C@@H]12 [Clortetracycline] | -0.117 | 0.0518 | -0.0412 | -0.0404 |  |  |  |  |
| O=C(N[C@H](CO)[C@H](O)c1ccc([N+](=O)[O-])cc1)C(Cl)Cl [Chloramphenicol] + CN[C@H](CC(C)C)C(=O)N[C@H]1C(=O)N[C@@H](CC(N)=O)C(=O)N[C@H]2C(=O)N[C@H]3C(=O)N[C@H](C(=O)N[C@H](C(=O)O)c4cc(O)cc(O)c4-c4cc3ccc4O)[C@H](O[C@H]3C[C@](C)(N)[C@@H](O)[C@H](C)O3)c3ccc(c(Cl)c3)Oc3cc2cc(c3O[C@@H]2O[C@H](CO)[C@@H](O)[C@H](O)[C@H]2O[C@H]2C[C@](C)(NCc3ccc(-c4ccc(Cl)cc4)cc3)[C@@H](O)[C@H](C)O2)Oc2ccc(cc2Cl)[C@H]1O [Oritavancin] | 0.0647 | 0.0571 | -0.0346 | 0.0499 |  |  |  |  |
| O=C(N[C@H](CO)[C@H](O)c1ccc([N+](=O)[O-])cc1)C(Cl)Cl [Chloramphenicol] + CO[C@@H]1[C@@H](OC(N)=O)[C@@H](O)[C@H](Oc2ccc3c(O)c(NC(=O)c4ccc(O)c(CC=C(C)C)c4)c(=O)oc3c2C)OC1(C)C [Novobiocin] | 0.0928 | 0.0712 | 0.0758 | -0.111 |  |  |  |  |
| O=C(N[C@H](CO)[C@H](O)c1ccc([N+](=O)[O-])cc1)C(Cl)Cl [Chloramphenicol] + CO[C@@]12[C@H](COC(N)=O)C3=C(C(=O)C(C)=C(N)C3=O)N1C[C@@H]1N[C@@H]12 [MitomycinC] | 0.114 | -0.0503 | 0.102 | -0.0831 |  |  |  |  |
| O=C(N[C@H](CO)[C@H](O)c1ccc([N+](=O)[O-])cc1)C(Cl)Cl [Chloramphenicol] + C[C@H]1c2cccc(O)c2C(=O)C2=C(O)[C@]3(O)C(=O)C(C(N)=O)=C(O)[C@@H](N(C)C)[C@@H]3[C@@H](O)[C@@H]21 [Doxycycline] | -0.0915 | 0.0395 | 0.0197 | -0.06 |  |  |  |  |
| O=C(N[C@H](CO)[C@H](O)c1ccc([N+](=O)[O-])cc1)C(Cl)Cl [Chloramphenicol] + Clc1ccc(COC(Cn2ccnc2)c2ccc(Cl)cc2Cl)c(Cl)c1 [Miconazole] | 0.0615 | 0.0813 | 0.0868 | 0.0799 |  |  |  |  |
| O=C(N[C@H](CO)[C@H](O)c1ccc([N+](=O)[O-])cc1)C(Cl)Cl [Chloramphenicol] + N[C@@H]1CONC1=O [CycloserineD] | 0.0478 | -0.168 | -0.144 | 0.141 |  |  |  |  |
| O=C(N[C@H](CO)[C@H](O)c1ccc([N+](=O)[O-])cc1)C(Cl)Cl [Chloramphenicol] + O=C(O)[C@H]1/C(=C/CO)O[C@@H]2CC(=O)N21 [Clavulanic] | 0.0981 | -0.265 | 0.202 | -0.0693 |  |  |  |  |
| O=C(N[C@H](CO)[C@H](O)c1ccc([N+](=O)[O-])cc1)C(Cl)Cl [Chloramphenicol] + Oc1cc(Cl)ccc1Oc1ccc(Cl)cc1Cl [Triclosan] | -0.0443 | -0.0764 | 0.0302 | 0.0444 |  |  |  |  |
| CC[C@H]1OC(=O)[C@H](C)[C@@H](O[C@H]2C[C@@](C)(OC)[C@@H](O)[C@H](C)O2)[C@H](C)[C@@H](O[C@@H]2O[C@H](C)C[C@H](N(C)C)[C@H]2O)[C@](C)(OC)C[C@@H](C)C(=O)[C@H](C)[C@@H](O)[C@]1(C)O [Clarithromycin] + CC1(C)S[C@@H]2[C@H](NC(=O)Cc3ccccc3)C(=O)N2[C@H]1C(=O)O [PenicillinG] | 0.0431 | -0.0458 | -0.0938 | -0.0413 |  |  |  |  |
| CC[C@H]1OC(=O)[C@H](C)[C@@H](O[C@H]2C[C@@](C)(OC)[C@@H](O)[C@H](C)O2)[C@H](C)[C@@H](O[C@@H]2O[C@H](C)C[C@H](N(C)C)[C@H]2O)[C@](C)(OC)C[C@@H](C)C(=O)[C@H](C)[C@@H](O)[C@]1(C)O [Clarithromycin] + CC(=O)O[C@H]1C[C@@]2(C)[C@@H](C[C@@H](O)[C@H]3[C@@]4(C)CC[C@@H](O)[C@@H](C)[C@@H]4CC[C@@]32C)/C1=C(\CCC=C(C)C)C(=O)O [Fusidic acid] | -0.059 | 0.0257 | 0.0229 | -0.0728 |  |  |  |  |
| CC[C@H]1OC(=O)[C@H](C)[C@@H](O[C@H]2C[C@@](C)(OC)[C@@H](O)[C@H](C)O2)[C@H](C)[C@@H](O[C@@H]2O[C@H](C)C[C@H](N(C)C)[C@H]2O)[C@](C)(OC)C[C@@H](C)C(=O)[C@H](C)[C@@H](O)[C@]1(C)O [Clarithromycin] + CCCCCCCCCC(=O)N[C@@H]1[C@H]([C@@H]([C@H](O[C@H]1OC2=C3C=C4C=C2OC5=C(C=C(C=C5)[C@H]([C@H]6C(=O)N[C@@H](C7=C(C(=CC(=C7)O)OC8[C@H]([C@H]([C@@H]([C@H](O8)CO)O)O)O)C9=C(C=CC(=C9)[C@H](C(=O)N6)NC(=O)[C@@H]4NC(=O)[C@@H]1C2=CC(=CC(=C2)OC2=C(C=CC(=C2)[C@H](C(=O)N[C@H](CC2=CC(=C(O3)C=C2)Cl)C(=O)N1)N)O)O)O)C(=O)O)O[C@H]1[C@@H]([C@H]([C@@H]([C@H](O1)CO)O)O)NC(=O)C)Cl)CO)O)O [Teicoplanin] |  |  |  |  | 0.0401 | 0.099 | 0.173 | -0.0509 |
| CC[C@H]1OC(=O)[C@H](C)[C@@H](O[C@H]2C[C@@](C)(OC)[C@@H](O)[C@H](C)O2)[C@H](C)[C@@H](O[C@@H]2O[C@H](C)C[C@H](N(C)C)[C@H]2O)[C@](C)(OC)C[C@@H](C)C(=O)[C@H](C)[C@@H](O)[C@]1(C)O [Clarithromycin] + CCC[C@@H]1C[C@@H](C(=O)N[C@@H]([C@H]2O[C@H](SC)[C@H](O)[C@@H](O)[C@H]2O)[C@H](C)Cl)N(C)C1 [Clindamycin] | 0.0458 | -0.0458 | -0.066 | 0.0678 |  |  |  |  |
